Laboratory results: US11999806B2, “Broad-spectrum polypeptide against enterovirus and application thereof” (WUHAN INSTITUTE OF VIROLOGY, CHINESE ACADEMY OF SCIENCES, priority 2018, dated 2024)
pIC50: −log10 of the molar value. Values joined by “and” are separate entries in the source; they are usually repeats but may differ in a detail not shown here. Equal values may be shown once. Read-outs that look alike come from different tables or passages of the source. Non-standard residues stand in square brackets, D forms with d. Residues, ends and D or L forms follow the SMILES beside them. No end group written: not given here.

Tested on: EV71
Format: cell-based, enterovirus 71
Settings: RD cells, EV71 0.1 MOI, 24 h; for pIC50: read-out: IC50 against EV71 by CCK8 method; for Virus inhibition rate (%): CCK-8
Procedure: • (1) 293T cells were plated in a 24-well cell plate. • (2) After the cells reached 70%-80% confluence, the MEM medium containing 10% serum was replaced with a MEM medium containing 2% serum (0.5 ml/well), and 5 μl of 10^6 PFU/mL EV71 virus per well was added. • (3) After 1 hour, polypeptides P2, 3A-TAT-EP, 3A-EP-DRI and 3A-EP-PEG-PA were added at a final concentration of 0.01 μM, 0.1 μM, 1 μM, and 10 μM, respectively. • (4) Samples were collected 24 hours after virus infection, and RNA was extracted with a total RNA extraction kit. • (5) The supernatant in each well was discarded, then 350 μl of TRK Lysis Buffer was added to the well and the plate was shaken on the shaker for 5 minutes. • (6) 350 μl of 70% ethanol (DEPC-treated) was added to the well and the plate was shaken on the shaker for 5 minutes. • (7) The mixture in the well was transferred to a RNA extraction column and centrifuged at 12000 g for 1 min. • (8) The solution collected in the recovery tube was added back to the column and centrifuged at 12,000 g for 1 min. • (9) RNA washing buffer 1 was added to the column and centrifuged at 12,000 g for 30 s. • (10) RNA washing buffer 2 was added to the column and centrifuged at 12,000 g for 1 min. • (11) Step (10) was repeated once. • (12) The empty column was centrifuged at 12,000 g for 2 min to completely remove residual RNA washing buffer. • (13) 50 μl DEPC-treated water was added to the column and centrifuge at 12000 g for 2 min. • (14) 2 μl RNA sample was used according to one step qRT-PCR kit for fluorescence quantification experiment. 3. […] Each concentration was tested in triplicate. • (3) The diluted virus solution was added to the plate of step (1), 100 μL per well with the final virus concentration was 0.1 MOI. Wells without polypeptide and virus (well without treatment), wells with virus only were used as controls. • (4) The mixture of step (2) was added to the 96-well plate plated with cells in step (1) and incubated in 5% CO2 at 37° C. for 24 h. Then CCK8 kit was used to determine the inhibitory effect of the polypeptide on virus. • (5) The inhibition rate of different concentrations of polypeptides on viral infection was calculated using the following formula: OD means the value of OD450-OD630, inhibition rate=(OD well with treatment−OD well with virus only)×100%/(OD well without treatment−OD well with virus only)
• (1) RD cells in good growth state were plated in a 96-well plate. • (2) After the cells reached 70%-80% confluence, the MEM medium containing 10% serum was replaced with a MEM medium containing 2% serum. Group without polypeptide and virus, and group with virus but without polypeptide were included as controls. The final virus concentration was 0.1 MOI. • (3) 1 h later, polypeptide CR at a final concentration of 5 μM, 2.5 μM, 1.25 μM, 0.625 μM, 0.3125 μM, and 0.15625 μM was added, respectively. Group without polypeptide and virus, and group with virus but without polypeptide were set as controls. • (4) 24 hours after virus infection, when the change in the control group with only virus was obvious, 10 μl of viable cell detection agent CCK-8 was added to each well and mixed well. • (5) The plate was incubated at 37° C. for 2 h. • (6) The absorbance value at OD450 was measured with a microplate reader. Inhibition rate of polypeptide=(OD well with treatment−OD well with virus only)×100%/(OD well without treatment−OD well with virus only), OD refers to the value of OD450-OD630.
• (1) RD cells in good growth state were plated in a 96-well plate. • (2) After the cells reached 70%-80% confluence, the MEM medium containing 10% serum was replaced with a MEM medium containing 2% serum. Group without polypeptide and virus, and group with virus but without polypeptide were included as controls. The final virus concentration was 0.1 MOI. • (3) 1 h later, polypeptide CR at a final concentration of 2.5 μM, 1.25 μM, 0.625 μM, 0.3125 μM, and 0.15625 μM was added, respectively. […]

Row | Compound | pIC50 | Virus inhibition rate (%) (0.625 μM) | Virus inhibition rate (%) (1.25 μM) | Virus inhibition rate (%) (2.5 μM)
1 | CC[C@@H](C)[C@@H](NC(=O)[C@H]1CCCN1C(C)=O)C(=O)N[C@@H](C(=O)N[C@H](Cc1c[nH]c2ccccc12)C(=O)NCC(=O)N[C@H](CCC(N)=O)C(=O)N[C@H](CCC(=O)O)C(=O)N[C@H](CCCNC(=N)N)C(=O)N[C@H](CS)C(=O)N[C@H](Cc1ccc(O)cc1)C(=O)N[C@H](CCC(N)=O)C(=O)N[C@H](CCCNC(=N)N)C(=O)N[C@@H](C(=O)N[C@H](CCC(=O)O)C(=O)N[C@H](CCC(=O)O)C(=O)N1CCC[C@@H]1C(=O)N1CCC[C@@H]1C(=O)N[C@H](CCCNC(=N)N)C(=O)N[C@H](CCCNC(=N)N)C(=O)N[C@H](CCCNC(=N)N)C(=O)N[C@H](CCC(N)=O)C(=O)N[C@H](CCCNC(=N)N)C(=O)N[C@H](CCCNC(=N)N)C(=O)N[C@H](CCCCN)C(=O)N[C@H](CCCCN)C(=O)N[C@H](CCCNC(=N)N)C(=O)NCC(=O)N[C@H](Cc1ccc(O)cc1)C(N)=O)C(C)C)[C@H](C)CC [3A-EP-DRI] | 5.45 | – | – | –
2 | CC(=O)N[C@H](CCCNC(=N)N)C(=O)N[C@H](CS)C(=O)N[C@H](Cc1ccc(O)cc1)C(=O)N[C@H](CCC(N)=O)C(=O)N[C@H](CCCNC(=N)N)C(=O)N[C@@H](C(=O)N[C@H](CCC(=O)O)C(=O)N[C@H](CCC(=O)O)C(=O)N1CCC[C@@H]1C(=O)N1CCC[C@@H]1C(=O)N[C@H](CCCNC(=N)N)C(=O)N[C@H](CCCNC(=N)N)C(=O)N[C@H](CCCNC(=N)N)C(=O)N[C@H](CCC(N)=O)C(=O)N[C@H](CCCNC(=N)N)C(=O)N[C@H](CCCNC(=N)N)C(=O)N[C@H](CCCCN)C(=O)N[C@H](CCCCN)C(=O)N[C@H](CCCNC(=N)N)C(=O)NCC(=O)N[C@H](Cc1ccc(O)cc1)C(N)=O)C(C)C [ER-DRI] (Ac-[dR][dC][dY][dQ][dR][dV][dE][dE][dP][dP][dR][dR][dR][dQ][dR][dR][dK][dK][dR]G[dY]-NH2) | 6.19 | 37.8% and 40.47% and 37.95% | 75.85% and 72.43% and 77.52% | 78.68% and 85.29% and 79.76%
3 | YGRKKRRQRRRGSGEEVRQYCR [ER] | 5.90 | – | – | –
